Assay results: paper PMC7377239, “Cardiovascular Effects of Polychlorinated Biphenyls and Their Major Metabolites” (Environmental Health Perspectives, 2020)
Counter-ions that a name gives are not always drawn. Like-named read-outs stand apart in the source and are kept apart here.

Columns and labels:
[1] = tested on: iCell cardiomyocytes (human iPSC-derived cardiomyocytes); assay: High-content imaging of cytotoxicity and mitochondrial integrity in iPSC-CMs; type: cell-based; details: Homo sapiens; for viability at 0.01 µM / activity at 0.01 µM / viability at 0.1 µM / activity at 0.1 µM / viability at 1 µM / activity at 1 µM / viability at 10 µM / activity at 10 µM / viability at 100 µM / activity at 100 µM: Cardiomyocyte, 0.00 µM = 100.00; for viability at 0.1 µM / activity at 0.1 µM: 0.10 µM; for minimal effective concentration: iPSC-CM
Summary of the method: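 Readouts from high-content images were normalized to vehicle controls containing 0.5% vol/vol DMSO. They were fit to a four-parameter logistic model in R. Points of departure were set using a cutoff of one standard deviation across vehicle control means. Where no concentration–response was seen, the top tested concentration of 100μM was assigned as the no observable adverse effect level.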

HUVECs = assay: High-content imaging cytotoxicity in HUVECs, 24 h; type: cell-based, human; details: Homo sapiens, HUVEC, 24 h, HUVECs; for viability at 0.01 µM / activity at 0.01 µM / viability at 0.1 µM / activity at 0.1 µM / viability at 1 µM / activity at 1 µM / viability at 10 µM / activity at 10 µM / viability at 100 µM / activity at 100 µM: 0.00 µM = 100.00; for viability at 0.1 µM / activity at 0.1 µM: 0.10 µM; for minimal effective concentration: top concentration 100.00 µM
Summary of the method: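 HUVECs (passages 1–5) were plated at 750 cells/well without fibronectin, grown to a monolayer (3–5 d) and exposed to compounds for 24 h at 37°C, 5% CO2. Hoechst 33342, MitoTracker Orange and calcein AM staining was imaged at 10×; readouts were normalized to 0.5% DMSO vehicle and fit to a four-parameter logistic model.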

[2] = 24 hr, read-out: huvec.cyto.24hr
[3] = 24 hr, read-out: huvec.mito.24hr
[4] = 24 hr, read-out: huvec.mitoint.24hr
[5] = 24 hr, read-out: huvec.nma.24hr
[6] = 24 hrs, read-out: huvec.tc.24hrs

## O=S(=O)(O)Oc1cccc(-c2ccc(Cl)cc2)c1 [3'-yl PCB 3 sulfate]
[1]; 1.5 h, read-out: cm.cam.90min
  viability at 0.01 µM: 99.5%
  viability at 0.1 µM: 98.2%
  viability at 1 µM: 102%
  viability at 10 µM: 95.4%
  viability at 100 µM: 99%
[1]; 1.5 h, read-out: cm.mii.90min
  activity at 0.01 µM: 98.4%
  activity at 0.1 µM: 97.1%
  activity at 1 µM: 99.8%
  activity at 10 µM: 104%
  activity at 100 µM: 91.3%
[1]; 1.5 h, read-out: cm.mito.90min
  activity at 0.01 µM: 99.8%
  activity at 0.1 µM: 98.3%
  activity at 1 µM: 102%
  activity at 10 µM: 95.4%
  activity at 100 µM: 99.3%
[1]; 1.5 h, read-out: cm.tc.90min
  viability at 0.01 µM: 99.9%
  viability at 0.1 µM: 98.4%
  viability at 1 µM: 102%
  viability at 10 µM: 95.3%
  viability at 100 µM: 99.3%
[1]; 24 h, read-out: cm.cam.24hrs
  viability at 0.01 µM: 97.1%
  viability at 0.1 µM: 105%
  viability at 1 µM: 101%
  viability at 10 µM: 103%
  viability at 100 µM: 97%
[1]; 24 h, read-out: cm.mii.24hrs
  activity at 0.01 µM: 93.8%
  activity at 0.1 µM: 89.9%
  activity at 1 µM: 100%
  activity at 10 µM: 79.2%
  activity at 100 µM: 88.7%
[1]; 24 h, read-out: cm.mito.24hrs
  activity at 0.01 µM: 95.4%
  activity at 0.1 µM: 105%
  activity at 1 µM: 99.9%
  activity at 10 µM: 104%
  activity at 100 µM: 97.8%
[1]; 24 h, read-out: cm.tc.24hrs
  viability at 0.01 µM: 98%
  viability at 0.1 µM: 105%
  viability at 1 µM: 102%
  viability at 10 µM: 103%
  viability at 100 µM: 97.2%
[1]; 1.5 h, read-out: cm.cam.90min POD
  minimal effective concentration: 100 µM
[1]; 1.5 h, read-out: cm.mii.90min POD
  minimal effective concentration: 89.9 µM
[1]; 1.5 h, read-out: cm.mito.90min POD
  minimal effective concentration: 100 µM
[1]; 1.5 h, read-out: cm.tc.90min POD
  minimal effective concentration: 100 µM
[1]; 24 h, read-out: cm.cam.24hrs POD
  minimal effective concentration: 100 µM
[1]; 24 h, read-out: cm.mii.24hrs POD
  minimal effective concentration: 100 µM
[1]; 24 h, read-out: cm.mito.24hrs POD
  minimal effective concentration: 100 µM
[1]; 24 h, read-out: cm.tc.24hrs POD
  minimal effective concentration: 100 µM
HUVECs; [2]
  viability at 0.01 µM: 96%
  viability at 0.1 µM: 97%
  viability at 1 µM: 92.7%
  viability at 10 µM: 119%
  viability at 100 µM: 88%
HUVECs; [3]
  activity at 0.01 µM: 95.2%
  activity at 0.1 µM: 97.2%
  activity at 1 µM: 92.1%
  activity at 10 µM: 118%
  activity at 100 µM: 87.5%
HUVECs; [4]
  activity at 0.01 µM: 93.5%
  activity at 0.1 µM: 105%
  activity at 1 µM: 104%
  activity at 10 µM: 89.3%
  activity at 100 µM: 102%
HUVECs; [5]
  activity at 0.01 µM: 100%
  activity at 0.1 µM: 101%
  activity at 1 µM: 101%
  activity at 10 µM: 92.6%
  activity at 100 µM: 94.9%
HUVECs; 24 hr, read-out: huvec.cyto.24hr POD
  minimal effective concentration: 100 µM
HUVECs; 24 hr, read-out: huvec.mito.24hr POD
  minimal effective concentration: 100 µM
HUVECs; 24 hr, read-out: huvec.mitoint.24hr POD
  minimal effective concentration: 100 µM
HUVECs; 24 hr, read-out: huvec.nma.24hr POD
  minimal effective concentration: 100 µM
HUVECs; [6]
  viability at 0.01 µM: 96%
  viability at 0.1 µM: 97.1%
  viability at 1 µM: 92.7%
  viability at 10 µM: 119%
  viability at 100 µM: 88.2%
HUVECs; 24 hrs, read-out: huvec.tc.24hrs POD
  minimal effective concentration: 100 µM
